From EP0633262A1, “Novel isatineoxime derivatives, their preparation and use” (NEUROSEARCH A/S, priority 1993, dated 1995)

Target: AMPA ((RS)-α-amino-3-hydroxy-5-methyl-4-isoxazolepropionic acid) binding site
Assay: AMPA binding assay (T. Honoré et al., Neuroscience Letters 54, 27-32 (1985))
Conditions: AMPA binding assay as described by T. Honoré et al.; read-out: IC₅₀
Description: In the same assay 8-Methyl-5,7,8,9-tetrahydro-1H-pyrrolo[3,2-h]isoquinoline-2,3-dione-3-oxime has an IC₅₀ of 0.2 µM.

CN1CC=C2CC=C3C(=NO)C(=O)NC3=C2C1 [Example 7, 8-Methyl-5,7,8,9-tetrahydro-1H-pyrrolo[3,2-h]isoquinoline-2,3-dione-3-oxime]
IC50: 200 nM

CN1CC=C2C(=C3NC(=O)C(=NO)C3=CC2S(=O)(=O)N(C)C)C1 (centres unmarked) [Example 6, 5-dimethylsulfamoyl-8-Methyl-5,7,8,9-tetrahydro-1H-pyrrolo[3,2-h]isoquinoline-2,3-dione-3-oxime]
IC50: 400 nM
